One block for each molecule: values may come before it.
Key:
[1] = Solid stability of crystal forms under accelerated conditions, XRPD detection; format: physicochemical; details: for Crystal form: 75% RH, open, XRPD detection
[2] = Dynamic vapor sorption (DVS) hygroscopicity study of the crystal forms; format: physicochemical
Protocol: The dynamic vapor sorption (DVS) curve is collected on the DVS Intrinsic plus by SMS (surface measurement systems). The relative humidity at 25° C. is corrected by the deliquescence point of lithium chloride (LiCl), magnesium nitrate [Mg(NO3)2] and potassium chloride (KCl).
The test parameters are as follows:
The hygroscopicity evaluation is classified as follows:
The specific results are shown as the DVS spectrums in FIGS. 27-29.

GLP-1 receptor = molecular target: T1, GLP-1 receptor (Homo sapiens, UniProt P43220); assay: Detection of cell viability in vitro (cAMP detection in GLP-1 cells); format: cell-based
T1 construct: host or cells: 'GLP-1 cell' constructed cell strain
T1 sequence (P43220 24-463): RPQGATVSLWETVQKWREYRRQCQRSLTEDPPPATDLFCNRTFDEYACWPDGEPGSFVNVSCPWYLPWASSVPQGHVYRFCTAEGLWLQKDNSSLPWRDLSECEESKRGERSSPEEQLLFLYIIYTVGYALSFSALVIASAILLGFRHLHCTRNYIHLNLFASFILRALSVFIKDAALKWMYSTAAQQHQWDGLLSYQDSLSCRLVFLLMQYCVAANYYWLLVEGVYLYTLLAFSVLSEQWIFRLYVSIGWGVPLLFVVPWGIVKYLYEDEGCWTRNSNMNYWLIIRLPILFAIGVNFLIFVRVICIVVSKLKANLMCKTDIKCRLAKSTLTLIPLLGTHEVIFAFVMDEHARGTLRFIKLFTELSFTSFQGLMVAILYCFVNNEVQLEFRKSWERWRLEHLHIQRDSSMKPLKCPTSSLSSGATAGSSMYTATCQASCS
Protocol: OptiPlate-384, White, PerkinElmer (Cat #6007290); 384 well plate for Echo, Labcyte (Cat #P-05525); EnVision, PerkinElmer; Vi-cell counter, Beckman (Cat # Vi-CELL™ XR Cell Viability Analyzer)
The compound was prepared to a working concentration of […] with DMSO. In this test, the use amount of each sample is 5 μL.
Preparation of cAMP detection reagent: 250 μL cAMP-D2, and 250 μL anti-cAMP cryptate reagent were added to 4 mL lysis buffer, then mixing well gently.
The compound to be tested was diluted 3 times at 10 points, the initial concentration was 30 M; and the dilution was completed by Bravo plateform. […]
• 1) A GLP-1 cell cryopreservation tube was quickly thawed in warm water at 37° C. 2) The cell suspension was transferred to a 15 mL Transfer centrifuge tube, then gently rinsing with 10 mL HBSS. • 3) The centrifuge tube was centrifuged at room temperature and 1000 rpm for 1 min. • 4) The supernatant was discarded. • 5) The cells at the bottom were gently dispersed and washed with 10 mL HBSS, then centrifuging to obtain cell sediment, and resuspending the cells with experimental buffer. • 6) Cell density and viability were measured by Vi-cell counter. • 7) GLP-1 cells were diluted with experimental buffer to a concentration of 2.0*10^5/mL. • 8) 100 nL of diluted cell suspension was transferred into OptiPlate-384 plate. • 9) The cells were incubated at room temperature for 30 min. […]

[3] = Study on DMPK in rats (oral, single administration); format: in vivo; details: rat, male SD rats, oral 5 mg/kg, plasma
Protocol: Male SD rats were used as test animals. After single administration, the plasma concentration of the compound was measured, and the pharmacokinetic behavior was evaluated.
Two healthy adult male SD rats were selected as the oral group. In the oral group, the vehicle was 20% PEG400/10% solutol/70% water; after the compound to be tested was mixed with the vehicle, 0.5 mg/mL clear solution was prepared by vortex and ultrasound. After oral administration at 5 mg/kg, the whole blood of rat was collected for a certain period of time to prepare plasma; then the drug concentration was analyzed by LC-MS/MS method, and the pharmacokinetic parameters were calculated by Phoenix WinNonlin software (Pharsight, USA).

[4] = Study on DMPK in cynomolgus monkeys (oral, single administration); format: in vivo; details: cynomolgus monkey, male cynomolgus monkeys, oral 20 mg/kg, plasma
Protocol: Male cynomolgus monkeys were used as test animals. After single administration, the plasma concentration of the compound was measured, and the pharmacokinetic behavior was evaluated.
Two healthy male cynomolgus monkeys were selected as a group. In the oral group, the vehicle was 20% HP-β-CD aqueous solution; after the compound to be tested was mixed with the vehicle, 4 mg/mL approximately clear solution was prepared by vortex and ultrasound. After oral administration at 20 mg/kg, the whole blood of cynomolgus monkey was collected for a certain period of time to prepare plasma; then the drug concentration was analyzed by LC-MS/MS method, and the pharmacokinetic parameters were calculated by Phoenix WinNonlin software (Pharsight, USA).

[5] = Crystal form change after drying the sample open at room temperature overnight; format: physicochemical
Protocol: About 15 mg of crystal Form A of formula (II-1) compound was weighed to add into a 3 mL vial, then adding 1.0 mL MeOH/MTBE (1:1, v/v), stirring at 50° C. for equilibrating about 1 hour, and then filtering to obtain the supernatant.
About 15 mg of crystal Form A of formula (II-1) compound was weighed to add into a 20 mL vial, then dissolving the solids completely with 0.2-1.0 mL MeOH (filtering out the undissolved sample by 0.45 m PTFE filter to obtain clear solution).

[6] = read-out: F % (oral bioavailability)

Crystal form ([1]; 40° C., Day 5): crystal Form E
Crystal form ([1]; 40° C., Day 15): crystal Form E
Crystal form ([1]; 40° C., Month 1): crystal Form E
Crystal form ([1]; 40° C., Month 2): crystal Form E
Crystal form ([1]; 60° C., Day 5): crystal Form E
Crystal form ([1]; 60° C., Day 15): crystal Form E
Crystal form ([1]; 60° C., Month 1): crystal Form E
Crystal form ([1]; 60° C., Month 2): crystal Form E
solid stability (conclusion) ([1]; fully exposed, 40° C./75% RH and 60° C./75% RH, XRPD compared with day 0): good stability
SMILES: O=C(O)c1cc2c(nc(CN3CC=C(c4cccc(OCc5ccc(Cl)cc5F)n4)CC3)n2C[C@@H]2CCO2)s1 [crystal Form E]

crystal form before and after adsorption and desorption [2]: changes
hygroscopic weight gain ([2]; 25° C. and 80% RH): 2.20%
SMILES: O=C(O)c1cc2c(nc(CN3CC=C(c4cccc(OCc5ccc(Cl)cc5F)n4)CC3)n2C[C@@H]2CCO2)s1 [crystal Form A]

Cmax [3]: 85.5 nM
AUC(0-t) ([3]; 24-hour oral exposure): 0.234 µM·h
bioavailability [3, 6]: 6.6%
Cmax [4]: 1420 nM
AUC(0-t) ([4]; 24-hour oral exposure): 12.8 µM·h
bioavailability [4, 6]: 22.1%
SMILES: O=C(O)c1cc2c(nc(CN3CC=C(c4cccc(OCc5ccc(Cl)cc5F)n4)CC3)n2C[C@@H]2CCO2)s1 [compound of formula (I)]
EC50 (GLP-1 receptor; GLP-1 target in HEK293 host cell, cAMP detection, read-out: Human-GLP1, EC50): 0.37 nM
ability to stimulate GLP-1 receptor (GLP-1 receptor; cAMP, GLP-1 cells): better ability to stimulate GLP-1 receptor

crystal form after drying open at room temperature overnight [5]: transformed into crystal Form E
SMILES: O=C(O)c1cc2c(nc(CN3CC=C(c4cccc(OCc5ccc(Cl)cc5F)n4)CC3)n2C[C@@H]2CCO2)s1 [crystal Form B]

From patent US20250154161A1, “CRYSTAL FORMS OF THIENOIMIDAZOLE COMPOUND AND PREPARATION METHOD THEREOF” (HANGZHOU SCIWIND BIOSCIENCES CO., LTD., priority 2021, published 2025)
